Test results as given in patent US11453663B2, “Substituted propanamides as inhibitors of nucleases” (MASARYKOVA UNIVERZITA, priority 2018, dated 2022).

How the values were obtained:
[1] = system: Phosphorylated RPA32 S4/S8 in U2OS cells; experiment: RPA assay (camptothecin-induced RPA phosphorylation); type: cell-based; conditions: Homo sapiens, 1 h pre-treatment, 1 uM camptothecin 1 h; for inhibition at 10 µM: 10 μM inhibitor
Procedure: U2OS cells were pre-treated for 1 h with MRE11 inhibitors followed by addition of 1 uM camptothecin for 1 h. Cells were lysed in SDS-PAGE loading buffer, sonicated and boiled at 70° C. for 10 min. Equal amounts of protein (50-100 μg) were analysed by Tris-glycine gel electrophoresis Expression levels were quantified using Multi Gauge software and expressed relative to loading control. Phosphorylated RPA32 S4/S8 (A300-245A, Bethyl Laboratories) 1:1000 dilution was used.

DR-GFP U2OS cells = experiment: HR assay (GFP fluorescence by flow cytometry after I-SceI transfection); type: cell-based; conditions: Homo sapiens, 25 μM inhibitor, 72 hours after transfection
Procedure: DR-GFP U2OS cells (Methods in Molecular Biology 2012, 920, 379.) were transfected with 2.5 μg of I-SceI-expressing pCAGGS vector and treated with the inhibitors at 25 μM concentration. 72 hours after the transfection, the cells were trypsinized and resuspended in 3% BSA in PBS. GFP fluorescence detection was carried out using a BD FACSVerse flow cytometer and data analyzed with FlowJo software.

MRE11 = MRE11 (Homo sapiens (Human), UniProt P49959); experiment: HTS nuclease assay (fluorescence-quenched 5′ overhang DNA substrate cleavage); type: biochemical; conditions: 18 nM MRE11, 40 nM DNA substrate, analysis at t=4 h
Procedure: DNA Substrate Preparation
The DNA substrate is prepared by mixing the oligonucleotides listed below in a 1:1 ratio to reach a final concentration of 6 μM in a buffer containing 50 mM Tris pH 7.5, 100 mM NaCl and 8 mM MgCl2.
The mixture is heat for 3 min at 65° C. and let to cool down slowly to RT. Then it is stored at −20° C.
This substrate is a 5′ overhang, which is a preferred substrate of MRE11. […] The fluorescence increases upon substrate cleavage by MRE11, when separation of the two labels occur.
The conditions of the assay are as follows:
Total reaction volume: 5 μL
DNA substrate concentration in the reaction: 40 nM
Inhibitor concentration range tested: 7 nM-50 μM
Each plate contains a series of high and low signal control wells, where no compound is added:
High signal: MRE11+DNA substrate
Low signal: DNA substrate only
These are used during data evaluation.
Two Extra Assay Controls:
1) To check whether unwinding of DNA by the compounds alone occurs.
The DNA substrate [CY5+BBQ(650)] is mixed with the compounds with no protein present.
The CY5 single stranded oligo is mixed with the compounds with no protein present.
The layout of the plates is created by the in-house software (CZ-Openscreen Prague) and this information is transferred to the robotic HTS station.
The reaction is started by the addition of DNA and the reaction time is counted from that moment, including a 15 min delay. Ten timepoints are measured:
The assay data analysis was performed at t=4 h. This corresponds to the time when the reaction is close to its maximum.
The data analysis was performed using the in-house software (CZ-Openscreen Prague) to obtain IC50 for each compound.

MRE11, sequence (P49959 whole entry): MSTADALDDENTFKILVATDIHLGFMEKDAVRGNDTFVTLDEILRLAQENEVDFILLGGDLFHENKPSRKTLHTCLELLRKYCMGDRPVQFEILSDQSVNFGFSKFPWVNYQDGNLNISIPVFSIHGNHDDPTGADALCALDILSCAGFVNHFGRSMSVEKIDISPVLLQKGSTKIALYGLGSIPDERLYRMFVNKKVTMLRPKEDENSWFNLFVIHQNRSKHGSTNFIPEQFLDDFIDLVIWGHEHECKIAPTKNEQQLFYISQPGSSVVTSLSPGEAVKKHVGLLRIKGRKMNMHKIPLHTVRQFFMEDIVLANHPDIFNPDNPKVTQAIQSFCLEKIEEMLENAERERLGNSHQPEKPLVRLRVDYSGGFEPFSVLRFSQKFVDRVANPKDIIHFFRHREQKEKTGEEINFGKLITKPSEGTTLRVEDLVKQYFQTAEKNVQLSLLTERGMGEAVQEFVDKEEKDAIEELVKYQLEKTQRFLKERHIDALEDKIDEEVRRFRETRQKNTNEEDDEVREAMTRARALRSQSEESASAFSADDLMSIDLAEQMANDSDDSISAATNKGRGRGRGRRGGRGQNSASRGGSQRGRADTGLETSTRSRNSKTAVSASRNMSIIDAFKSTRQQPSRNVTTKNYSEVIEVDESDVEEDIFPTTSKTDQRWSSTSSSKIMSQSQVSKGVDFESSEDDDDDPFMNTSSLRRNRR

Row | IC50 (MRE11) [µM] | Compound | inhibition at 10 µM [1] [%] | inhibition at 25 µM (DR-GFP U2OS cells) [%] | inhibition at 25 µM ([1]; 25 μM inhibitor) [%]
1 | 2 to 10 | N#CC(Cc1ccc(O)c(O)c1)C(=O)Nc1nc(-c2ccc(Br)cc2)cs1 (stereo not shown) [Preparative Example 129, N-(4-(4-bromophenyl)thiazol-2-yl)-2-cyano-3-(3,4-dihydroxyphenyl)propanamide] | 60 | > 75 | 
2 | 2 to 10 | N#CC(Cc1ccc(O)c(O)c1)C(=O)Nc1nc(-c2ccccc2)c(C2CCCCC2)s1 (stereo not shown) [Preparative Example 146, 2-cyano-N-(5-cyclohexyl-4-phenylthiazol-2-yl)-3-(3,4-dihydroxyphenyl)propanamide] |  | > 75 | 
3 | 10 to 90 | Cc1cc(CC(C#N)C(=O)Nc2nc(-c3ccccc3)cs2)cc(Cl)c1O (stereo not shown) [Preparative Example 155, 3-(3-chloro-4-hydroxy-5-methylphenyl)-2-cyano-N-(4-phenylthiazol-2-yl)propanamide] |  | < 50 | 
4 | < 2 | COc1ccnc(-c2csc(NC(=O)C(C#N)Cc3ccc(O)c(O)c3)n2)c1 (stereo not shown) [Preparative Example 167, 2-cyano-3-(3,4-dihydroxyphenyl)-N-(4-(4-methoxypyridin-2-yl)thiazol-2-yl)propanamide] |  | > 75 | 
5 | 10 to 90 | Cc1cc(CC(C#N)C(=O)Nc2nc(-c3ccccc3)cs2)cc(C)c1O (stereo not shown) [Preparative Example 147, 2-cyano-3-(4-hydroxy-3,5-dimethylphenyl)-N-(4-phenylthiazol-2-yl)propanamide] |  | 50 to 75 | 
6 | 2 to 10 | N#CC(Cc1ccc(O)c(O)c1)C(=O)Nc1nc(-c2cc(Cl)sc2Cl)cs1 (stereo not shown) [Preparative Example 175, 2-cyano-N-(4-(2,5-dichlorothiophen-3-yl)thiazol-2-yl)-3-(3,4-dihydroxyphenyl)propanamide] |  | 50 to 75 | 
7 | 2 to 10 | N#CC(Cc1ccc(O)c(O)c1)C(=O)Nc1nc(-c2ccc(OC(F)(F)F)cc2)cs1 (stereo not shown) [Preparative Example 136, 2-cyano-3-(3,4-dihydroxyphenyl)-N-(4-(4-(trifluoromethoxy)phenyl)thiazol-2-yl)propanamide] | 40 | > 75 | 
8 | < 2 | N#CC(Cc1ccc(O)c(O)c1)C(=O)Nc1nc(-c2ccc(Cl)c(Cl)c2)cs1 (stereo not shown) [Preparative Example 160, 2-cyano-N-(4-(3,4-dichlorophenyl)thiazol-2-yl)-3-(3,4-dihydroxyphenyl)propanamide] |  | 50 to 75 | 
9 |  | CC(C)(C)c1cc(CC(C#N)C(=O)Nc2nc(-c3ccccc3)cs2)cc(C(C)(C)C)c1O (stereo not shown) [Preparative Example 139, 2-cyano-3-(3,5-di-tert-butyl-4-hydroxyphenyl)-N-(4-phenylthiazol-2-yl)propanamide] | 70 | > 75 | 
10 | < 2 | Cc1ccc(-c2sc(NC(=O)C(C#N)Cc3ccc(O)c(O)c3)nc2-c2ccccc2)cc1 (stereo not shown) [Preparative Example 135, 2-cyano-3-(3,4-dihydroxyphenyl)-N-(4-phenyl-5-(p-tolyl)thiazol-2-yl)propanamide] |  | > 75 | 
11 | < 2 | N#CC(Cc1ccc(O)c(O)c1Br)C(=O)Nc1nc(-c2ccccc2)cs1 (stereo not shown) [Preparative Example 148, 3-(2-bromo-3,4-dihydroxyphenyl)-2-cyano-N-(4-phenylthiazol-2-yl)propanamide] |  | > 75 | 90
12 | 10 to 90 | CC(C#N)(Cc1ccc(O)c(O)c1)C(=O)Nc1nc(-c2ccccc2)cs1 (stereo not shown) [Preparative Example 179, 2-cyano-3-(3,4-dihydroxyphenyl)-2-methyl-N-(4-phenylthiazol-2-yl)propanamide] |  | < 50 | 
13 | < 2 | N#CC(Cc1ccc(O)c(O)c1)C(=O)Nc1nc(-c2cc(C(F)(F)F)ccn2)cs1 (stereo not shown) [Preparative Example 174, 2-cyano-3-(3,4-dihydroxyphenyl)-N-(4-(4-(trifluoromethyl)pyridin-2-yl)thiazol-2-yl)propanamide] |  | > 75 | 
14 | 2 to 10 | N#CC(Cc1cc(Cl)c(O)c(Cl)c1)C(=O)Nc1nc(-c2ccc3ccccc3c2)cs1 (stereo not shown) [Preparative Example 143, 2-cyano-3-(3,5-dichloro-4-hydroxyphenyl)-N-(4-(naphthalen-2-yl)thiazol-2-yl)propanamide] |  | < 50 | 
15 | 2 to 10 | Cc1ccccc1-c1csc(NC(=O)C(C#N)Cc2ccc(O)c(O)c2)n1 (stereo not shown) [Preparative Example 161, 2-cyano-3-(3,4-dihydroxyphenyl)-N-(4-(o-tolyl)thiazol-2-yl)propanamide] |  | 50 to 75 | 
16 | < 2 | Cc1ccc(-c2csc(NC(=O)C(C#N)Cc3ccc(O)c(O)c3)n2)nc1 (stereo not shown) [Preparative Example 165, 2-cyano-3-(3,4-dihydroxyphenyl)-N-(4-(5-methylpyridin-2-yl)thiazol-2-yl)propanamide] |  | > 75 | 
17 | 2 to 10 | N#CC(Cc1cc(F)c(O)c(Cl)c1)C(=O)Nc1nc(-c2ccccc2)cs1 (stereo not shown) [Preparative Example 156, 3-(3-chloro-5-fluoro-4-hydroxyphenyl)-2-cyano-N-(4-phenylthiazol-2-yl)propanamide] |  | < 50 | 
18 | 2 to 10 | CC(C)(C)c1ccc(-c2csc(NC(=O)C(C#N)Cc3ccc(O)c(O)c3)n2)cc1 (stereo not shown) [Preparative Example 140, N-(4-(4-(tert-butyl)phenyl)thiazol-2-yl)-2-cyano-3-(3,4-dihydroxyphenyl)propanamide] | 40 | > 75 | 
19 | 2 to 10 | Cc1ccnc(-c2csc(NC(=O)C(C#N)Cc3ccc(O)c(O)c3)n2)c1 (stereo not shown) [Preparative Example 164, 2-cyano-3-(3,4-dihydroxyphenyl)-N-(4-(4-methylpyridin-2-yl)thiazol-2-yl)propanamide] |  | > 75 | 
20 | 2 to 10 | N#CC(Cc1cc(Cl)c(O)c(Cl)c1)C(=O)Nc1nc(-c2ccccc2)c(-c2ccccc2)s1 (stereo not shown) [Preparative Example 134, 2-cyano-3-(3,5-dichloro-4-hydroxyphenyl)-N-(4,5-diphenylthiazol-2-yl)propanamide] |  | < 50 | 
21 | 2 to 10 | Cc1ccc(-c2csc(NC(=O)C(C#N)Cc3ccc(O)c(O)c3)n2)cc1 (stereo not shown) [Preparative Example 133, 2-cyano-3-(3,4-dihydroxyphenyl)-N-(4-(p-tolyl)thiazol-2-yl)propanamide] |  | < 50 | 
